# In patent US20040044006A1, “Methods of use of quinolone compounds against pneumococcal and haemophilus bacteria” (priority 1999, published 2004):
# Read-outs that look alike come from different tables or passages of the source.
# What was measured:
# [1] = test system: quinolone-resistant Haemophilus influenzae strains; assay: Microdilution MIC determination in HTM for quinolone-resistant Haemophilus influenzae strains; format: cell-based; conditions: 9 quinolone-resistant Haemophilus influenzae strains
# Experimental: Inocula were prepared from chocolate agar plates incubated for a full 24 hours by the direct colony suspension method as follows: In a tube of Mueller-Hinton broth (Difco), an organism suspension was made to a density of a 0.5 McFarland standard (1×10^8 CFU/ml). The latter inoculum was diluted in sterile saline such that final organisms suspensions in trays yielded colony counts of 3-8×10^5 CFU/ml. Frozen microdilution trays were obtained from MicroMedia Systems, Inc. (Cleveland, Ohio, USA). Each tray contained all antimicrobials prepared in freshly made HTM. Wells were inoculated with 100 μl suspensions and incubated in ambient air at 35° C. for 20-24 hours. The lowest drug concentration showing no growth was read as the MIC. Standard quality control strains, including H. influenzae ATCC 49766, H. influenzae ATCC 49247, Staphylococcus aureus ATCC 29213 and Escherichia coli ATCC 25922 were included with each run.
# pneumococcal strains = assay: Microbroth dilution MICs of strains tested by time-kill and PAE; format: cell-based; conditions: Streptococcus pneumoniae, read-out: Microdilution MIC
# Outline: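 S. pneumoniae ATCC 49619 served as control in each run. For the 12 time-kill and 6 PAE strains, MICs came from NCCLS microbroth dilution using cation-adjusted Mueller-Hinton broth plus 5% lysed defibrinated horse blood.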
# [2] = test system: pneumococci with ciprofloxacin MICs ≧8 μg/ml; assay: Quinolone agar dilution MICs of 28 ciprofloxacin resistant pneumococcal strains, correlated with QRDR mutations; format: cell-based, Streptococcus pneumoniae
# Experimental: Additionally these strains were tested for mutations in parC, gyrA, parE, and gyrB (Pan, et al. Antimicrob. Agents Chemother. 40:2321-2326, 1996) and for efflux mechanism (Brenwald, et ail., Antimicrob. Agents Chemother. 42:2032-2035, 1998).
# Gemifloxacin susceptibility powder was obtained from SmithKline Beecham Laboratories, Harlow, UK. Agar dilution methodology was performed on 28 strains as described previously (M. R. Jacobs, Clin. Infect. Dis. 15: 119-127, […] and M. R. Jacobs, Rev. Med. Microbiol. 6:77-93, 1995), using Mueller-Hinton altar (BBL Microbiology Systems, Cockeysville, Md.) supplemented with 5% sheep blood. Standard quality control strains, including Streptococcus pneumoniae ATCC 49619, were included in each run of agar dilution MICs.
smiles,measurement,setting,value
"N[C@@H]1[C@H]2CN(c3nc4c(cc3F)c(=O)c(C(=O)O)cn4-c3ccc(F)cc3F)C[C@@H]12 [Trovafloxacin, trovafloxacin]",MIC50,[1],1 mg/L
same,MIC Range,[1],0.25 to 8.0 mg/L
same,MIC,pneumococcal strains; strain 1 (S) penicillin susceptible,0.06 mg/L
same,MIC,pneumococcal strains; strain 2 (S) penicillin susceptible,0.06 mg/L
same,MIC,"pneumococcal strains; strain 3 (S) penicillin susceptible, quinolone-resistant",8 mg/L
same,MIC,"pneumococcal strains; strain 4 (S) penicillin susceptible, quinolone-resistant",4 mg/L
same,MIC,pneumococcal strains; strain 5 (I) penicillin intermediate,0.06 mg/L
same,MIC,pneumococcal strains; strain 6 (I) penicillin intermediate,0.06 mg/L
same,MIC,pneumococcal strains; strain 7 (I) penicillin intermediate,0.06 mg/L
same,MIC,pneumococcal strains; strain 8 (I) penicillin intermediate,0.125 mg/L
same,MIC,pneumococcal strains; strain 9 (R) penicillin resistant,0.125 mg/L
same,MIC,pneumococcal strains; strain 10 (I),0.06 mg/L
same,MIC,pneumococcal strains; strain 11 (R) penicillin resistant,0.06 mg/L
same,MIC,pneumococcal strains; strain 12 (R) penicillin resistant,0.125 mg/L
same,MIC50,[2]; Streptococcus pneumoniae,1 mg/L
same,MIC90,[2]; Streptococcus pneumoniae,4 mg/L
same,MIC,"[2]; Streptococcus pneumoniae, read-out: MICs in strains with three or four QRDR mutations, 20 strains, bound holds in all 20 (ciprofloxacin, levofloxacin, sparfloxacin), 19 (grepafloxacin), 10 (trovafloxacin), 18 (gemifloxacin)",> 2 mg/L
same,MIC,"[2]; Streptococcus pneumoniae, read-out: MICs in strains with three or four QRDR mutations, 21 strains, bound holds in all 21 (ciprofloxacin, levofloxacin, sparfloxacin), 20 (grepafloxacin), 11 (trovafloxacin), 19 (gemifloxacin)",≥ 2 mg/L
same,MIC,"[2]; Streptococcus pneumoniae, strain 1, ParC S79-F, ParE I460-V, GyrA S81-F, GyrB None",2 mg/L
same,MIC,"[2]; Streptococcus pneumoniae, strain 1, ParC S79-F, ParE I460-V, GyrA S83-F, GyrB None",2 mg/L
same,MIC,"[2]; Streptococcus pneumoniae, strain 2, ParC S79-Y, ParE I460-V, GyrA None, GyrB None",0.25 mg/L
same,MIC,"[2]; Streptococcus pneumoniae, strain 3, ParC D83-N, ParE I460-V, GyrA S81-F, GyrB None",0.25 mg/L
same,MIC,"[2]; Streptococcus pneumoniae, strain 3, ParC D83-N, ParE I460-V, GyrA S83-F, GyrB None",0.25 mg/L
same,MIC,"[2]; Streptococcus pneumoniae, strain 4, ParC S79-F, ParE I460-V, GyrA S81-F, GyrB None",0.25 mg/L
same,MIC,"[2]; Streptococcus pneumoniae, strain 4, ParC S79-F, ParE I460-V, GyrA S83-F, GyrB None",0.25 mg/L
same,MIC,"[2]; Streptococcus pneumoniae, strain 5, ParC R95-C, ParE D435-N, GyrA S81-F, GyrB None",0.25 mg/L
same,MIC,"[2]; Streptococcus pneumoniae, strain 5, ParC R95-C, ParE D435-N, GyrA S83-F, GyrB None",0.25 mg/L
same,MIC,"[2]; Streptococcus pneumoniae, strain 6, ParC S79-Y, ParE I460-V, GyrA E85-K, GyrB None",2 mg/L
same,MIC,"[2]; Streptococcus pneumoniae, strain 6, ParC S79-Y, ParE I460-V, GyrA E87-K, GyrB None",2 mg/L
same,MIC,"[2]; Streptococcus pneumoniae, strain 7, ParC None, ParE I460-V, GyrA None, GyrB None",0.5 mg/L
same,MIC,"[2]; Streptococcus pneumoniae, strain 8, ParC S79-Y, ParE None, GyrA None, GyrB None",0.5 mg/L
same,MIC,"[2]; Streptococcus pneumoniae, strain 9, ParC S79-Y, ParE None, GyrA None, GyrB None",1 mg/L
same,MIC,"[2]; Streptococcus pneumoniae, strain 10, ParC S79-F, ParE I460-V, GyrA S81-C, GyrB None",1 mg/L
same,MIC,"[2]; Streptococcus pneumoniae, strain 10, ParC S79-F, ParE I460-V, GyrA S83-C, GyrB None",1 mg/L
same,MIC,"[2]; Streptococcus pneumoniae, strain 11, ParC S79-F, ParE I460-V, GyrA S81-F, GyrB None",1 mg/L
same,MIC,"[2]; Streptococcus pneumoniae, strain 11, ParC S79-F, ParE I460-V, GyrA S83-F, GyrB None",1 mg/L
same,MIC,"[2]; Streptococcus pneumoniae, strain 12, ParC S79-F, ParE I460-V, GyrA None, GyrB D435-N",1 mg/L
same,MIC,"[2]; Streptococcus pneumoniae, strain 13, ParC S79-F, ParE I460-V, GyrA None, GyrB E474-K",1 mg/L
same,MIC,"[2]; Streptococcus pneumoniae, strain 14, ParC S79-F, ParE I460-V, GyrA S81-F, GyrB None",1 mg/L
same,MIC,"[2]; Streptococcus pneumoniae, strain 14, ParC S79-F, ParE I460-V, GyrA S83-F, GyrB None",1 mg/L
same,MIC,"[2]; Streptococcus pneumoniae, strain 15, ParC 79-F, ParE I460-V, GyrA S83-F, GyrB None",1 mg/L
same,MIC,"[2]; Streptococcus pneumoniae, strain 15, ParC S79-F, ParE I460-V, GyrA S81-F, GyrB None",1 mg/L
same,MIC,"[2]; Streptococcus pneumoniae, strain 16, ParC S79-F, ParE I460-V, GyrA S81-F, GyrB None",2 mg/L
same,MIC,"[2]; Streptococcus pneumoniae, strain 16, ParC S79-F, ParE I460-V, GyrA S83-F, GyrB None",2 mg/L
same,MIC,"[2]; Streptococcus pneumoniae, strain 17, ParC D83-N, ParE None, GyrA S81-F, GyrB None",2 mg/L
same,MIC,"[2]; Streptococcus pneumoniae, strain 17, ParC D83-N, ParE None, GyrA S83-F, GyrB None",2 mg/L
same,MIC,"[2]; Streptococcus pneumoniae, strain 18, ParC S79-F, ParE I460-V, GyrA S81-F, GyrB None",2 mg/L
same,MIC,"[2]; Streptococcus pneumoniae, strain 18, ParC S79-F, ParE I460-V, GyrA S83-F, GyrB None",2 mg/L
same,MIC,"[2]; Streptococcus pneumoniae, strain 19, ParC S79-F, ParE I460-V, GyrA S81-F, GyrB None",2 mg/L
same,MIC,"[2]; Streptococcus pneumoniae, strain 19, ParC S79-F, ParE I460-V, GyrA S83-F, GyrB None",2 mg/L
same,MIC,"[2]; Streptococcus pneumoniae, strain 20, ParC S79-F, ParE I460-V, GyrA E85-K, GyrB None",2 mg/L
same,MIC,"[2]; Streptococcus pneumoniae, strain 20, ParC S79-F, ParE I460-V, GyrA E87-K, GyrB None",2 mg/L
same,MIC,"[2]; Streptococcus pneumoniae, strain 21, ParC S79-F, ParE I460-V, GyrA S81-F, GyrB None",1 mg/L
same,MIC,"[2]; Streptococcus pneumoniae, strain 21, ParC S79-F, ParE I460-V, GyrA S83-F, GyrB None",1 mg/L
same,MIC,"[2]; Streptococcus pneumoniae, strain 22, ParC S79-F, ParE I460-V, GyrA S81-Y, GyrB None",2 mg/L
same,MIC,"[2]; Streptococcus pneumoniae, strain 22, ParC S79-F, ParE I460-V, GyrA S83-Y, GyrB None",2 mg/L
same,MIC,"[2]; Streptococcus pneumoniae, strain 23, ParC S79-Y, ParE None, GyrA S81-A, GyrB None",2 mg/L
same,MIC,"[2]; Streptococcus pneumoniae, strain 23, ParC S79-Y, ParE None, GyrA S83-A, GyrB None",2 mg/L
same,MIC Range,"[2]; agar dilution, 28 strains with ciprofloxacin MICs ≧8.0 μg/ml",0.25 to 8 mg/L
